Test results: ChEMBL document CHEMBL1671743, “Affinity of ceftobiprole for penicillin-binding protein 2b in Streptococcus pneumoniae strains with various susceptibilities to penicillin” (Antimicrob Agents Chemother, 2010)
In brackets after ≈: the same amount, converted by molar mass.

What was measured:
Streptococcus pneumoniae [1] = experiment: Antimicrobial activity against penicillin intermediate resistant Streptococcus pneumoniae isolate 8882 harboring PBP2b 443SSNA mutant by broth microdilution method; type: functional
[2] = biological target: T1, Penicillin-binding protein 2B (Streptococcus pneumoniae (strain ATCC BAA-255 / R6), UniProt P0A3M6, T446A); experiment: Inhibition of Streptococcus pneumoniae isolate 8882 Bocillin FL binding to PBP2b 443SSNA mutant
[3] = biological target: Penicillin-binding protein 2B (Streptococcus pneumoniae (strain ATCC BAA-255 / R6), UniProt P0A3M6, A619G); experiment: Inhibition of Bocillin FL binding to PBP2b in Streptococcus pneumoniae isolate 8819 harboring E333G, I361L, E369D, S412P, N422Y, T426K, Q427L, Q438E, L455I, S473T, E476G, S480A, T489A, N538D, D561E, Q564K, and D625G mutant genes
[4] = biological target: T2, Penicillin-binding protein 2B (Streptococcus pneumoniae serotype 4 (strain ATCC BAA-334 / TIGR4), UniProt P0A3M5); experiment: Inhibition of Bocillin FL binding to Streptococcus pneumoniae isolate 8865 PBP2b
T2 sequence (P0A3M5 whole entry): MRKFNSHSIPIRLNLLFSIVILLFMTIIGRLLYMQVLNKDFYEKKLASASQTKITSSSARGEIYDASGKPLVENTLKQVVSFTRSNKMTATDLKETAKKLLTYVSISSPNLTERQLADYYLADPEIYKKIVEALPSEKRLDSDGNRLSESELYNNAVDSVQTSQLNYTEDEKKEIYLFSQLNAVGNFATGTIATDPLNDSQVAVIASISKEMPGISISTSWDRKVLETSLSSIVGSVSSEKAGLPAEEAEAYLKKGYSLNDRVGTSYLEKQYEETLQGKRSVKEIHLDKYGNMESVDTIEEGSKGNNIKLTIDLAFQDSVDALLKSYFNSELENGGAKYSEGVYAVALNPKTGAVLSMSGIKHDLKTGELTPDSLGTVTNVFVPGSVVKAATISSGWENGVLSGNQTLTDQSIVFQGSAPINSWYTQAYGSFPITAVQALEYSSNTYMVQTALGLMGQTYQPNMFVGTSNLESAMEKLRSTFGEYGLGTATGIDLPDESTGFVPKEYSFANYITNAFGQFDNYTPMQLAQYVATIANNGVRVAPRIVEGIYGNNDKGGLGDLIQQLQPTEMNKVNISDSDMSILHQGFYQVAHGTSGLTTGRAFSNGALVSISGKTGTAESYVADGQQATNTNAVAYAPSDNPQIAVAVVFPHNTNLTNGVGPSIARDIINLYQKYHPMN

Streptococcus pneumoniae [5] = experiment: Antimicrobial activity against laboratory-derived Streptococcus pneumoniae isolate R6 harboring Thr446Ala mutant gene by broth microdilution method; type: functional
[6] = biological target: T1, Penicillin-binding protein 2B; experiment: Inhibition of Bocillin FL binding to PBP2b Thr446Ala mutant in laboratory-derived Streptococcus pneumoniae isolate R6
Streptococcus pneumoniae [7] = experiment: Antimicrobial activity against laboratory-derived Streptococcus pneumoniae isolate R6 harboring Thr446Ala/Ala-619-Gly mutant gene by broth microdilution method; type: functional
[8] = biological target: Penicillin-binding protein 2B (Streptococcus pneumoniae (strain ATCC BAA-255 / R6), UniProt P0A3M6, A619G/T446A); experiment: Inhibition of Bocillin FL binding to PBP2b Thr446Ala/Ala-619-Gly mutant in laboratory-derived Streptococcus pneumoniae isolate R6
Streptococcus pneumoniae [9] = experiment: Antimicrobial activity against penicillin resistant Streptococcus pneumoniae isolate 8819 harboring PBP2b 443SSNA mutant by broth microdilution method; type: functional
Streptococcus pneumoniae [10] = experiment: Antimicrobial activity against penicillin intermediate resistant Streptococcus pneumoniae isolate 8009 harboring PBP2b 443SSNA mutant by broth microdilution method; type: functional
Streptococcus pneumoniae [11] = experiment: Antimicrobial activity against penicillin sensitive Streptococcus pneumoniae isolate 8865 by broth microdilution method; type: functional
Streptococcus pneumoniae [12] = experiment: Antimicrobial activity against laboratory-derived Streptococcus pneumoniae isolate R6 by broth microdilution method; type: functional
[13] = biological target: T2, Penicillin-binding protein 2B; experiment: Inhibition of Bocillin FL binding to PBP2b in laboratory-derived Streptococcus pneumoniae isolate R6
[14] = biological target: T1, Penicillin-binding protein 2B; experiment: Inhibition of Bocillin FL binding to PBP2b PBP2b 443SSNA mutant in Streptococcus pneumoniae isolate 8009 harboring E333G, N470K, E476G, T489S, E506D, and N538D mutant genes

T1 sequence (P0A3M6 whole entry T446A): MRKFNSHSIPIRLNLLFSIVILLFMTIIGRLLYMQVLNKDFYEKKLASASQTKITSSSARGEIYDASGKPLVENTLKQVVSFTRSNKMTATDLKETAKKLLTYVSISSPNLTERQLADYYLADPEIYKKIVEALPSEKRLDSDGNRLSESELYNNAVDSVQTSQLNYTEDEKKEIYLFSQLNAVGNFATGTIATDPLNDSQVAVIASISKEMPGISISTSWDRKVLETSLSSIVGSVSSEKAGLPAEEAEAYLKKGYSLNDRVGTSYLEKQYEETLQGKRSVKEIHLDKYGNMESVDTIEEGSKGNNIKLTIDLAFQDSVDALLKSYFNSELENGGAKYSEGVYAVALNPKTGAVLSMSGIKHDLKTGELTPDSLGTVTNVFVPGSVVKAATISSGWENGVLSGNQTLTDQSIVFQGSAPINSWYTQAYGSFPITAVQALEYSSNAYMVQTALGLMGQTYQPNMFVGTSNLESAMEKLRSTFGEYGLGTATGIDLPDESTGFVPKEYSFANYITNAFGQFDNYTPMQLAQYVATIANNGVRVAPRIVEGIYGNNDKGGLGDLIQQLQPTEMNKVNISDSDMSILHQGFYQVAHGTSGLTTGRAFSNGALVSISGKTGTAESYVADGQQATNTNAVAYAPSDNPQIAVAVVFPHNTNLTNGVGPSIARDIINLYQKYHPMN
Penicillin-binding protein 2B (Streptococcus pneumoniae (strain ATCC BAA-255 / R6), UniProt P0A3M6, A619G), sequence (P0A3M6 whole entry A619G): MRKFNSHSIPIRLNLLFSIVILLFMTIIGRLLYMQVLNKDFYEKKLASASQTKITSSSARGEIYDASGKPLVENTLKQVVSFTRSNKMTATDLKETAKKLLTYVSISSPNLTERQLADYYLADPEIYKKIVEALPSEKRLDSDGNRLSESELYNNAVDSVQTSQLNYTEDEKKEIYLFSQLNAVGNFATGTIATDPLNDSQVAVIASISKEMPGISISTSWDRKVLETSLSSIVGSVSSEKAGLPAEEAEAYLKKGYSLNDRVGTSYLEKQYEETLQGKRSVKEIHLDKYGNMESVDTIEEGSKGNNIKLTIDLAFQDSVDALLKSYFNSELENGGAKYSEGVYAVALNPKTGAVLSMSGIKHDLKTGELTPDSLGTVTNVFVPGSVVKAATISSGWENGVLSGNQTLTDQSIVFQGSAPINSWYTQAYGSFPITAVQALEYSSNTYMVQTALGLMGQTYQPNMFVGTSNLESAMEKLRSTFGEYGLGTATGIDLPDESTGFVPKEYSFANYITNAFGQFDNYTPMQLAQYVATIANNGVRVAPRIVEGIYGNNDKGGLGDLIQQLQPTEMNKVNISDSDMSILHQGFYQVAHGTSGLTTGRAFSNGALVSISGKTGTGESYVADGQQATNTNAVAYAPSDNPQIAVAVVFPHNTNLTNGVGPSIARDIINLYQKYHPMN
Penicillin-binding protein 2B (Streptococcus pneumoniae (strain ATCC BAA-255 / R6), UniProt P0A3M6, A619G/T446A), sequence (P0A3M6 whole entry T446A/A619G): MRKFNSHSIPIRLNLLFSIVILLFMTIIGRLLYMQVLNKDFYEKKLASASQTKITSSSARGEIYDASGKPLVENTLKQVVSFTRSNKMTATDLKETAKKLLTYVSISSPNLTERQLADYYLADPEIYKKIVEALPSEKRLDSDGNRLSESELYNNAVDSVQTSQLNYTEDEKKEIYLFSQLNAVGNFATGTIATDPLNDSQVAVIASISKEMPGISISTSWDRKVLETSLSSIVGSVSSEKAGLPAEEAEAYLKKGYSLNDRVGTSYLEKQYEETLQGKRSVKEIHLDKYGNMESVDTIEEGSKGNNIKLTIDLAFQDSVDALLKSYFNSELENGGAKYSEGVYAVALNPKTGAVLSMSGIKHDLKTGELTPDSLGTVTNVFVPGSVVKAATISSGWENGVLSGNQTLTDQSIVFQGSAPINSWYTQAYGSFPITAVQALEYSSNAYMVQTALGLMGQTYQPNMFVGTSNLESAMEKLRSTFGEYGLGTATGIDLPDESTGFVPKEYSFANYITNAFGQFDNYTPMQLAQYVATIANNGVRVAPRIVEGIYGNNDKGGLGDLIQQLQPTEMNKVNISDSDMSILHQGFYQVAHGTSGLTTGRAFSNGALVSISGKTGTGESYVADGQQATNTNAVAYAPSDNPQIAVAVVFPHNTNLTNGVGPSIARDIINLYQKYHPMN

## Nc1nc(/C(=N/O)C(=O)N[C@@H]2C(=O)N3C(C(=O)O)=C(/C=C4\CCN([C@@H]5CCNC5)C4=O)CS[C@H]23)ns1 [CEFTOBIPROLE]
Streptococcus pneumoniae [1]
  MIC: 0.008 µg/mL (≈ 0.015 µM)
[2]
  IC50: 2240 nM
[3]
  IC50: > 15000 nM
[4]
  IC50: 112 nM
Streptococcus pneumoniae [5]
  MIC: 0.002 µg/mL (≈ 0.00374 µM)
[6]
  IC50: 1310 nM
Streptococcus pneumoniae [7]
  MIC: 0.004 µg/mL (≈ 0.00748 µM)
[8]
  IC50: 3180 nM
Streptococcus pneumoniae [9]
  MIC: 1 µg/mL (≈ 1.87 µM)
Streptococcus pneumoniae [10]
  MIC: 0.015 µg/mL (≈ 0.0281 µM)
Streptococcus pneumoniae [11]
  MIC: 0.008 µg/mL (≈ 0.015 µM)
Streptococcus pneumoniae [12]
  MIC: 0.002 µg/mL (≈ 0.00374 µM)
[13]
  IC50: 112 nM
[14]
  IC50: 1680 nM

## CO/N=C(\C(=O)N[C@@H]1C(=O)N2C(C(=O)O)=C(CSc3nc(=O)c(O)nn3C)CS[C@H]12)c1csc(N)n1 [CEFTRIAXONE]
Streptococcus pneumoniae [1]
  MIC: 0.06 µg/mL (≈ 0.108 µM)
[2]
  IC50: > 14400 nM
[3]
  IC50: > 14400 nM
[4]
  IC50: > 14400 nM
Streptococcus pneumoniae [5]
  MIC: 0.008 µg/mL (≈ 0.0144 µM)
Streptococcus pneumoniae [7]
  MIC: 0.015 µg/mL (≈ 0.027 µM)
Streptococcus pneumoniae [9]
  MIC: 8 µg/mL (≈ 14.4 µM)
Streptococcus pneumoniae [10]
  MIC: 0.06 µg/mL (≈ 0.108 µM)
Streptococcus pneumoniae [11]
  MIC: 0.03 µg/mL (≈ 0.0541 µM)
Streptococcus pneumoniae [12]
  MIC: 0.008 µg/mL (≈ 0.0144 µM)
[13]
  IC50: > 14400 nM
[14]
  IC50: > 14400 nM

## CC1(C)S[C@@H]2[C@H](NC(=O)Cc3ccccc3)C(=O)N2[C@H]1C(=O)O [PENICILLIN G]
Streptococcus pneumoniae [1]
  MIC: 0.12 µg/mL (≈ 0.359 µM)
[2]
  IC50: 7480 nM
[3]
  IC50: > 23900 nM
[4]
  IC50: 23.9 nM
Streptococcus pneumoniae [5]
  MIC: 0.015 µg/mL (≈ 0.0449 µM)
[6]
  IC50: 2390 nM
Streptococcus pneumoniae [7]
  MIC: 0.03 µg/mL (≈ 0.0897 µM)
[8]
  IC50: 5380 nM
Streptococcus pneumoniae [9]
  MIC: 8 µg/mL (≈ 23.9 µM)
Streptococcus pneumoniae [10]
  MIC: 0.12 µg/mL (≈ 0.359 µM)
Streptococcus pneumoniae [11]
  MIC: ≤ 0.015 µg/mL
Streptococcus pneumoniae [12]
  MIC: 0.015 µg/mL (≈ 0.0449 µM)
[13]
  IC50: 449 nM
[14]
  IC50: 7480 nM
